Test results as given in US5063206A, “Compositions having use as treatment of neuropsychiatric deficits” (The United States of Americas as represented by the …, priority 1989, dated 1991).

Tested on: volunteers who tested negative for HIV antibodies
Test: Clinical effects observed in volunteers who tested negative for HIV antibodies
Assay type: in vivo, human
Description: was given at dosage of 0.033 mg/kg/da to 0.133 mg/kg/da for seven days. As indicated in the Table, the unexpected effects observed in these volunteers who tested negative for HIV antibodies were the following: […]

Substance: D--Ala--Ser--Thr--Thr--Thr--Asn--Tyr--Thr--amide (ASTTTNYT; N-terminal D-residue; C-terminal amide; printed: Ala--Ser--Thr--Thr--Thr--Asn--Tyr--Thr--) [Peptide T]
- symptoms of substance abuse, childhood dyslexia and depression (0.033 mg/kg/da to 0.133 mg/kg/da for seven days): ameliorated
- scores on memory and attention components of standard neuropsychologic tests (0.033-0.133 mg/kg/da for seven days, effect remitted after Peptide T was discontinued): Incremental scores
- physical activity while on drug (all subjects, did not continue after drug discontinuance): increases in physical activity
- mood scores on depression scales (the two research volunteers who had prior histories of depression): Improved mood scores
- duration of the improved mood effect (the two research volunteers who had prior histories of depression, follow-up): maintained for one month of follow-up
